# Tests used:
# Experiment in all cases: Test C greenhouse herbicide test, pre- and postemergence
# Format in all cases: in vivo
# [1] = system: nutsedge, yellow (yellow nutsedge, Cyperus esculentus)
# Excerpt: (§1) Seeds of plant species selected from blackgrass (Alopecurus myosuroides), ryegrass, Italian (Italian ryegrass, Lolium multiflorum), wheat (winter wheat, Triticum aestivum), galium (catchweed bedstraw, Galium aparine), corn (Zea mays), large crabgrass, large (large crabgrass, Digitaria sanguinalis), foxtail, giant (giant foxtail, Setaria faberii), johnsongrass (Sorghum halepense), lambsquarters (Chenopodium album), morningglory (Ipomoea coccinea), nutsedge, yellow (yellow nutsedge, Cyperus esculentus), pigweed (Amaranthus retroflexus), ragweed (common ragweed, Ambrosia elatior), soybean (Glycine max), barnyardgrass (Echinochloa crus-galli), oilseed rape (Brassica napus), waterhemp (common waterhemp, Amaranthus rudis), and velvetleaf (Abutilon theophrasti) were planted into a blend of loam soil and sand and treated preemergence with test chemicals formulated in a non-phytotoxic solvent mixture which included a surfactant.
# (§2) At the same time, plants selected from these crop and weed species and also chickweed (common chickweed, Stellaria media), kochia (Kochia scoparia), and oat, wild (wild oat, Avena fatua), were planted in pots containing Redi-Earth® planting medium (Scotts Company, 14111 Scottslawn Road, Marysville, Ohio 43041) comprising spaghnum peat moss, vermiculite, wetting agent and starter nutrients and treated with postemergence applications of test chemicals formulated in the same manner. Plants ranged in height from 2 to 18 cm (1- to 4-leaf stage) for postemergence treatments. Treated plants and controls were maintained in a greenhouse for 13 to 15 d, after which time all species were compared to controls and visually evaluated. Plant response ratings, summarized in Table C, are based on a scale of 0 to 100 where 0 is no effect and 100 is complete control. A dash (-) response means no test result.
# [2] = system: barnyardgrass (Echinochloa crus-galli)
# Excerpt: as §1, §2
# [3] = system: blackgrass (Alopecurus myosuroides)
# Excerpt: as §1, §2
# [4] = system: velvetleaf (Abutilon theophrasti)
# Excerpt: as §1, §2
# [5] = system: foxtail, giant (giant foxtail, Setaria faberii)
# Excerpt: as §1, §2
# [6] = system: pigweed (Amaranthus retroflexus)
# Excerpt: as §1, §2
# [7] = system: johnsongrass (Sorghum halepense)
# Excerpt: as §1, §2
# [8] = system: morningglory (Ipomoea coccinea)
# Excerpt: as §1, §2
# [9] = system: soybean (Glycine max)
# Excerpt: as §1, §2
# [10] = system: ragweed (common ragweed, Ambrosia elatior)
# Excerpt: as §1, §2
# [11] = system: wheat (winter wheat, Triticum aestivum)
# Excerpt: as §1, §2
# [12] = system: waterhemp (common waterhemp, Amaranthus rudis)
# Excerpt: as §1, §2
# [13] = system: crabgrass, large (large crabgrass, Digitaria sanguinalis)
# Excerpt: as §1, §2
# [14] = system: oilseed rape (Brassica napus)
# Excerpt: as §1, §2
# [15] = system: lambsquarters (Chenopodium album)
# Excerpt: as §1, §2
# [16] = system: galium (catchweed bedstraw, Galium aparine)
# Excerpt: as §1, §2
# [17] = Postemergence, 31 g ai/ha, 0 to 100 scale (0 no effect, 100 complete control)
# [18] = Postemergence, 250 g ai/ha, scale 0 to 100, 0 no effect, 100 complete control, 13 to 15 d
# [19] = Preemergence, 31 g ai/ha, scale 0 to 100, 0 is no effect, 100 is complete control
# [20] = Preemergence, 62 g ai/ha, scale 0 to 100, 0 is no effect, 100 is complete control
# [21] = Preemergence, 125 g ai/ha, scale 0 to 100, 0 is no effect, 100 is complete control
# [22] = Preemergence, 250 g ai/ha, scale 0 to 100 (0 no effect, 100 complete control)
# [23] = postemergence, 62 g ai/ha, scale 0 to 100, 0 no effect, 100 complete control
# [24] = Postemergence, 125 g ai/ha, scale 0 to 100, 0 is no effect, 100 is complete control
compound,measurement,setting,value
CCC(=O)Oc1c(C)nn(C)c(=O)c1-c1c(C)sc2ccc(C)cc12 [Compound 42],"Nutsedge, Yellow plant response rating",[1]; [17],65
same,"Plant response rating, Nutsedge, Yellow",[1]; [18],95
same,"Plant response rating, Nutsedge, Yellow",[1]; [19],55
same,"Plant response rating, Nutsedge, Yellow",[1]; [20],60
same,"Plant response rating, Nutsedge, Yellow",[1]; [21],40
same,"Nutsedge, Yellow plant response rating",[1]; [22],80
same,"Nutsedge, Yellow plant response rating",[1]; [23],75
same,Barnyardgrass plant response rating,[2]; [17],20
same,"Plant response rating, Barnyardgrass",[2]; [24],30
same,"Plant response rating, Barnyardgrass",[2]; [18],40
same,"Plant response rating, Barnyardgrass",[2]; [19],0
same,"Plant response rating, Barnyardgrass",[2]; [20],30
same,"Plant response rating, Barnyardgrass",[2]; [21],60
same,Barnyardgrass plant response rating,[2]; [22],80
same,Barnyardgrass plant response rating,[2]; [23],30
same,Blackgrass plant response rating,[3]; [17],30
same,"Plant response rating, Blackgrass",[3]; [24],60
same,"Plant response rating, Blackgrass",[3]; [18],70
same,"Plant response rating, Blackgrass",[3]; [19],40
same,"Plant response rating, Blackgrass",[3]; [20],85
same,"Plant response rating, Blackgrass",[3]; [21],90
same,Blackgrass plant response rating,[3]; [22],90
same,Blackgrass plant response rating,[3]; [23],35
same,Velvetleaf plant response rating,[4]; [17],45
same,"Plant response rating, Velvetleaf",[4]; [24],85
same,"Plant response rating, Velvetleaf",[4]; [18],95
same,"Plant response rating, Velvetleaf",[4]; [19],85
same,"Plant response rating, Velvetleaf",[4]; [20],90
same,"Plant response rating, Velvetleaf",[4]; [21],90
same,Velvetleaf plant response rating,[4]; [22],98
same,Velvetleaf plant response rating,[4]; [23],85
same,"Foxtail, Giant plant response rating",[5]; [17],25
same,"Plant response rating, Foxtail, Giant",[5]; [24],35
same,"Plant response rating, Foxtail, Giant",[5]; [18],80
same,"Plant response rating, Foxtail, Giant",[5]; [19],75
same,"Plant response rating, Foxtail, Giant",[5]; [20],80
same,"Plant response rating, Foxtail, Giant",[5]; [21],90
same,"Foxtail, Giant plant response rating",[5]; [22],100
same,"Foxtail, Giant plant response rating",[5]; [23],30
same,Pigweed plant response rating,[6]; [17],85
same,"Plant response rating, Pigweed",[6]; [24],98
same,"Plant response rating, Pigweed",[6]; [18],98
same,"Plant response rating, Pigweed",[6]; [19],100
same,"Plant response rating, Pigweed",[6]; [20],100
same,"Plant response rating, Pigweed",[6]; [21],100
same,Pigweed plant response rating,[6]; [22],100
same,Pigweed plant response rating,[6]; [23],95
same,Johnsongrass plant response rating,[7]; [17],5
same,"Plant response rating, Johnsongrass",[7]; [18],25
same,"Plant response rating, Johnsongrass",[7]; [19],0
same,"Plant response rating, Johnsongrass",[7]; [20],0
same,"Plant response rating, Johnsongrass",[7]; [21],5
same,Johnsongrass plant response rating,[7]; [22],30
same,Johnsongrass plant response rating,[7]; [23],5
same,Morningglory plant response rating,[8]; [17],75
same,"Plant response rating, Morningglory",[8]; [24],100
same,"Plant response rating, Morningglory",[8]; [18],100
same,"Plant response rating, Morningglory",[8]; [19],85
same,"Plant response rating, Morningglory",[8]; [20],98
same,"Plant response rating, Morningglory",[8]; [21],98
same,Morningglory plant response rating,[8]; [22],98
same,Morningglory plant response rating,[8]; [23],100
same,Soybean plant response rating,[9]; [17],0
same,"Plant response rating, Soybean",[9]; [24],10
same,"Plant response rating, Soybean",[9]; [18],15
same,"Plant response rating, Soybean",[9]; [19],35
same,"Plant response rating, Soybean",[9]; [20],0
same,"Plant response rating, Soybean",[9]; [21],0
same,Soybean plant response rating,[9]; [22],5
same,Soybean plant response rating,[9]; [23],5
same,Ragweed plant response rating,[10]; [17],90
same,"Plant response rating, Ragweed",[10]; [24],98
same,"Plant response rating, Ragweed",[10]; [18],100
same,"Plant response rating, Ragweed",[10]; [19],90
same,"Plant response rating, Ragweed",[10]; [20],90
same,"Plant response rating, Ragweed",[10]; [21],95
same,Ragweed plant response rating,[10]; [22],100
same,Ragweed plant response rating,[10]; [23],85
same,Wheat plant response rating,[11]; [17],0
same,"Plant response rating, Wheat",[11]; [24],0
same,"Plant response rating, Wheat",[11]; [18],0
same,"Plant response rating, Wheat",[11]; [19],0
same,"Plant response rating, Wheat",[11]; [20],0
same,"Plant response rating, Wheat",[11]; [21],0
same,Wheat plant response rating,[11]; [22],5
same,Wheat plant response rating,[11]; [23],0
same,Waterhemp plant response rating,[12]; [17],75
same,"Plant response rating, Waterhemp",[12]; [24],98
same,"Plant response rating, Waterhemp",[12]; [18],95
same,"Plant response rating, Waterhemp",[12]; [19],80
same,"Plant response rating, Waterhemp",[12]; [20],98
same,"Plant response rating, Waterhemp",[12]; [21],100
same,Waterhemp plant response rating,[12]; [22],100
same,Waterhemp plant response rating,[12]; [23],85
same,"Crabgrass, Large plant response rating",[13]; [17],10
same,"Plant response rating, Crabgrass, Large",[13]; [24],20
same,"Plant response rating, Crabgrass, Large",[13]; [18],20
same,"Plant response rating, Crabgrass, Large",[13]; [19],55
same,"Plant response rating, Crabgrass, Large",[13]; [20],70
same,"Plant response rating, Crabgrass, Large",[13]; [21],80
same,"Crabgrass, Large plant response rating",[13]; [22],85
same,"Crabgrass, Large plant response rating",[13]; [23],15
same,Oilseed Rape plant response rating,[14]; [17],0
same,"Plant response rating, Oilseed Rape",[14]; [24],10
same,"Plant response rating, Oilseed Rape",[14]; [18],0
same,"Plant response rating, Oilseed Rape",[14]; [19],0
same,"Plant response rating, Oilseed Rape",[14]; [20],0
same,"Plant response rating, Oilseed Rape",[14]; [21],5
same,Oilseed Rape plant response rating,[14]; [22],20
same,Oilseed Rape plant response rating,[14]; [23],5
same,Lambsquarters plant response rating,[15]; [17],85
same,"Plant response rating, Lambsquarters",[15]; [24],100
same,"Plant response rating, Lambsquarters",[15]; [18],98
same,"Plant response rating, Lambsquarters",[15]; [19],85
same,"Plant response rating, Lambsquarters",[15]; [20],80
same,"Plant response rating, Lambsquarters",[15]; [21],85
same,Lambsquarters plant response rating,[15]; [22],90
same,Lambsquarters plant response rating,[15]; [23],95
same,Galium plant response rating,[16]; [17],95
same,"Plant response rating, Galium",[16]; [24],100
same,"Plant response rating, Galium",[16]; [18],95
same,"Plant response rating, Galium",[16]; [19],90
same,"Plant response rating, Galium",[16]; [20],90
same,"Plant response rating, Galium",[16]; [21],95
same,Galium plant response rating,[16]; [22],98
same,Galium plant response rating,[16]; [23],90

# — US10597388B2, “Pyridazinone herbicides” (FMC CORPORATION, priority 2014, dated 2020)
